The record followed here is patent publication US20200276181A1, “THIENOISOQUINOLINES AND THEIR DERIVATIVES FOR TARGETING TUBULIN, CH-TOG, AURORA A KINASE, TPX2, CDK5RAP2 AND/OR ASPM” (VALORBEC, SEC, priority 2017, published 2020).

By IC50 is commonly meant the concentration that gives 50% inhibition. A high value points to weaker potency.

The structures appear in SMILES notation.

In assay [1] the test system is A549 cells. Description: IC50 of derivatives (Table 5). The class given is cell-based, human. Conditions: for IC50: Table 5, cell line only named in b213 (A549).
Assay [2] deals with HeLa (cervical adenocarcinoma) cells. The assay can be described thus: Cell viability IC50 (Table 3). The format is cell-based, human. As to the method: (§1) To date, 30 variants with different structural modifications have been made. […] In particular, it is shown that C75 causes death in multiple cancer cells with IC50 values in the 100-400 nM range, including breast cancers (MCF7, BT549), lung cancer (A549), colorectal cancer (HCT116) in addition to HeLa cells (cervical cancer).

In a further assay the test system is HCT116 spheroids. The assay can be described thus: Multicellular tumour spheroids. The format is cell-based. Conditions: 10 nM paclitaxel or 250 nM C75 alone, 6 days. As to the method: FIGS. 5A, 5B, 5C, 5D, 5E, 5F, 5G, 5H, 5I, 5J, 5K, 5L and 5M show how C75 disrupts or reduces the growth of HeLa, HCT116 and A549 spheroids. FIG. 5A) images show HeLa spheroids over time (3 days) before and after treatment with control (1 μM C87; n=10), 250 nM (n=6) or 500 nM (n=10) of C75. The scale bar is 100 μm. FIG. 5B) is a series images of HeLa spheroids after three days of treatment with control (500 nM C87) or 500 nM C75. The spheroids were stained for fluorescein diacetate (to detect live cells) and propidium iodide (to detect dead cells). […] The scale bar is 100 μm. FIG. 5C) is a line graph showing the change in spheroid area (μm^2) for each day and treatment as indicated. Bars show standard deviation and the asterisks are p<0.05 as determined by the student's t test. FIG. 5D) images show HeLa spheroids over 3 days before and after treatment with empty nanoparticles (control; n=3) or 250 nM of nanoparticle-encapsulated C75 (n=3). The scale bar is 100 μm. […] Bars show standard deviation and the asterisks are p<0.05 as determined by the student's t test. FIG. 5F) is a series of images of HCT116 spheroids treated with control (1 μM C87; n=10), 500 nM C75 (n=10) and 1 μM C75 (n=10). FIG. 5G) is a series images of HCT116 spheroids after six days of treatment with control (1 μM C87) or 1 μM C75. The spheroids were stained for fluorescein diacetate (live cells) and propidium iodide (dead cells). […] FIG. 5H) is a line graph showing the growth in surface area (%) of HCT116 spheroids treated with control (1 μM C87), 500 nM C75 and 1 μM C75 after six days. FIG. 5I) is a series of images of A549 spheroids treated with control (1 μM C87, n=6), 500 nM C75 (n=6), and 1 μM C75 (n=6) over 5 days. The scale bar is 100 μm. FIG. 5J) is a series of images of A549 spheroids after six days of treatment with control (750 nM C87) or 1 μM C75. The spheroids were stained for fluorescein diacetate (live cells) and propidium iodide (dead cells). […] Bars show standard deviation and the asterisks are p<0.05 as determined by the student's t test. FIG. 5L) images show A549 spheroids over 6 days before and after treatment with empty nanoparticles (control; n=3) or 500 nM of nanoparticle-encapsulated C75 (n=3). The scale bar is 100 μm. […] Bars show standard deviation and the asterisks are p<0.05 as determined by the student's t test.
FIG. 11A) is a series of images of HCT116 spheroids treated with control (DMSO), 10 nM paclitaxel, 250 nM C75 or both for 6 days. […] The scale bar for the images is 100 μm. […] As shown in the images, adding paclitaxel and C75 in combination led to regression in spheroid size compared to each treatment on its own.
The thienoisoquinoline compounds may also have potential for use in combinatorial therapies. […]

Assay [3] relates to A549 cells. Description: Spindle morphology, DAPI and tubulin staining. Conditions: 300 nM, 4 hours. The format is cell-based, human. As for the experimental part: FIG. 1A) is a line graph showing changes in the percentage of viable HFF-1, HeLa, A549 and HCT 116 cells after treatment with a range of C75 concentrations for 3 population doubling times (N=3). […] FIG. 1C) is a line graph showing the percentage of HeLa and HFF1 cells in mitosis after treatment with various concentrations of C75 for 8 hours. The bars indicate standard deviation. FIG. 1D) is a series of images showing cells that were fixed and co-stained for tubulin (microtubules) and DAPI (DNA). […] The scale bar for the cells is 10 μm. […] FIG. 1F) is a cartoon schematic showing the key features of a metaphase cell.

Assay [4] deals with MCF7, BT549, A549, HCT116, HeLa cells. Description: Viability in cancer vs non-cancer cell lines, summary of Table 3. The class given is cell-based, human. As to the method: as §1

`Cc1ccc(S(=O)(=O)N2Cc3ccccc3-c3sc(C(=O)O)cc32)cc1` [Compound C143]: the IC50 in the assay on A549 cells [1] is over 1000 nM. On the same count and under the same terms, next, `COc1ccc(S(=O)(=O)N2Cc3ccccc3-c3sc(Br)c(C)c32)cc1` [Compound C139]: over 1000 nM; `COc1ccc(S(=O)(=O)N2Cc3ccccc3-c3scc(C)c32)cc1` [Compound C127]: 635 nM; `COc1ccc(S(=O)(=O)N2Cc3cccc([N+](=O)[O-])c3-c3sc(Br)cc32)cc1` [Compound C131]: 801 nM. In assay [2], `Cc1cccc(S(=O)(=O)N2Cc3ccccc3-c3sc(Br)cc32)c1` [Compound C93] had a 50% inhibitory concentration (IC50) of over 1000 nM. Regarding `COc1ccc(S(=O)(=O)N2Cc3cccc(N)c3-c3sccc32)cc1` [Compound C132], the IC50 in the assay with A549 cells [1] is over 1000 nM.

As to `CC(=O)O[C@H]1C(=O)[C@@]2(C)[C@H]([C@H](OC(=O)c3ccccc3)[C@]3(O)C[C@H](OC(=O)[C@H](O)[C@@H](NC(=O)c4ccccc4)c4ccccc4)C(C)=C1C3(C)C)[C@]1(OC(C)=O)CO[C@@H]1C[C@@H]2O` [paclitaxel, reference compound], the “spheroid growth, single drug” value in the assay with HCT116 spheroids is recorded as “failed to grow”. Turning to `O=S(=O)(c1ccc(C(F)(F)F)cc1)N1Cc2ccccc2-c2sccc21` [Compound C108], the IC50 (in the assay on A549 cells [1]; in assay [2]) was over 1000 nM throughout. Take `CC(C)(C)c1ccc(S(=O)(=O)N2Cc3ccccc3-c3sc(Br)cc32)cc1` [Compound C201]: the 50% inhibitory concentration (IC50) (in the assay on A549 cells [1]; in assay [2]) was over 1000 nM in each case. In the assay on A549 cells [1], `COc1ccc(S(=O)(=O)N2Cc3ccccc3-c3sc(Cl)c(C)c32)cc1` [Compound C128] yielded an IC50 of 549 nM. The same measure, in the same setting: the value for `COc1ccc(S(=O)(=O)N2Cc3cc4c(cc3-c3sccc32)OCO4)cc1` [Compound C300] was over 1000 nM. Turning to `COc1ccc(S(=O)(=O)N2Cc3ccccc3-c3sc(C=O)cc32)cc1` [Compound C140], the “efficacy relative to C75” value in the assay on A549 cells [1] (A549 cells) was “higher efficacy”. This compound also showed an IC50 in the assay on A549 cells [1] of 260 nM. In addition, the spindle phenotype result in the assay on A549 cells [3] is “causes spindle phenotypes similar to C75”. Take `O=S(=O)(c1ccc(C(F)(F)F)cc1)N1Cc2ccccc2-c2sc(Br)cc21` [Compound C200]: the half-inhibitory concentration (IC50) (with A549 cells [1]; in assay [2]) was over 1000 nM in each case. In the assay with A549 cells [1], `COc1ccc(S(=O)(=O)N2Cc3ccccc3-c3sc(C=O)c(C)c32)cc1` [Compound C138] yielded an IC50 of 416 nM. The same measure, in the same setting: next, `Cc1ccc(S(=O)(=O)N2Cc3ccccc3-c3sc(C=O)cc32)cc1` [Compound C142]: 456 nM.

As to `COc1ccc(S(=O)(=O)N2Cc3cc4c(cc3-c3sc(Br)cc32)OCO4)cc1` [Compound C301], in the assay with A549 cells [1], the IC50 was over 1000 nM.

For `COc1ccc(S(=O)(=O)N2Cc3cccc([N+](=O)[O-])c3-c3sccc32)cc1` [Compound C130], it took 439 nM to reach half-maximal inhibition with A549 cells [1] (IC50). In turn, `COc1ccc(S(=O)(=O)N2Cc3c(Br)ccc(N)c3-c3sc(Br)cc32)cc1` [Compound C133] gave an IC50 in the assay with A549 cells [1] of over 1000 nM. Turning to `COc1ccc(S(=O)(=O)N2Cc3ccccc3-c3sc(C(=O)O)cc32)cc1` [Compound C141], in the assay on A549 cells [1], the IC50 is over 1000 nM.

Consider `Cc1ccc(S(=O)(=O)N2Cc3ccccc3-c3sccc32)cc1` [Compound C91], for which the “efficacy (effect on viability) in cancer cells vs. non-cancer cells” value in assay [4] is reported as “higher efficacy”. In the assay with A549 cells [1] (Homo sapiens), this compound came in with a concentration for half-maximal inhibition (IC50) of over 1000 nM.

`Cc1ccc(S(=O)(=O)N2Cc3ccccc3-c3sc(-c4ccccc4)cc32)cc1` [Compound C71]: the IC50 (in the assay with A549 cells [1]; in assay [2]) was over 1000 nM each time.

With `COc1ccc(S(=O)(=O)N2Cc3ccccc3-c3sc(Cl)cc32)cc1` [Compound C208], the IC50 in the assay on A549 cells [1] is 434 nM; in assay [2] it was 204 nM. The matching figures for `Cc1cccc(S(=O)(=O)N2Cc3ccccc3-c3sccc32)c1` [Compound C39]: over 1000 nM and over 1000 nM. `CC(C)(C)c1ccc(S(=O)(=O)N2Cc3ccccc3-c3sccc32)cc1` [Compound C109] had a half-maximal inhibitory concentration (IC50) in the assay with A549 cells [1] of over 1000 nM.

For the compound `Cc1ccc(S(=O)(=O)N2Cc3ccccc3-c3sc(Br)cc32)cc1` [Compound C74], the IC50 (with A549 cells [1]; in assay [2]) was over 1000 nM each time.
